Measured values: ChEMBL document CHEMBL5096229, “A 1,2,3-Triazole Derivative of Quinazoline Exhibits Antitumor Activity by Tethering RNF168 to SQSTM1/P62” (J Med Chem, 2022)
pIC50: −log10 of the molar value. Active and inactive are the calls of the source. No cut-off for these calls is given here.

Assays:
[1] = Half life in BALB/c mouse at 5 mg/kg; assay type: ADME, organism-based; conditions: in vivo
[2] = Toxicity in BALB/c nude mouse assessed as animal death 25 mg/kg, ip after 7 days; assay type: organism-based; conditions: in vivo, 168 h, time 7 day
[3] = Metabolic stability in human liver microsomes assessed as half life at 0.5 uM by LC-MS analysis; assay type: ADME, Microsome
HCT-116 [4] = test: Induction of P62 to RNF168 protein-protein interaction in human HCT-116 cells lysates chromatin enriched fraction by immunoblotting assay; assay type: subcellular
HCT-116 [5] = test: Induction of cell cycle arrest in human HCT-116 cells assessed as accumulation at S phase at 1 uM after 24 hrs by propidium iodide-staining based flow cytometry (reference value: 17.17 +/- 0.18%); assay type: functional
[6] = Toxicity in BALB/c nude mouse assessed as changes in body weight at 5 to 10 mg/kg, ip administered every 3 days upto 22 days; assay type: organism-based; conditions: in vivo, 528 h, dose 5-10 mg/kg, time < 22 day
U2OS [7] = test: Cytotoxicity against human U2OS cells assessed as reduction in cell viability incubated for 72 hrs by MTS assay; assay type: functional, cell-based
Sequestosome-1 [8] = target: T1, Sequestosome-1 (Homo sapiens, UniProt Q13501); test: Binding affinity to N-terminal P62 (1 to 335 residues) in human HCT-116 cells lysates; assay type: subcellular; conditions: filed as activator
U2OS [9] = test: Inhibition of homologous recombinant repair in human U2OS cells assessed as I-SceI induced double […] break pretreated with I-SceI for 36 hrs followed by compound addition and measured after 12 hrs; assay type: functional, cell-based; conditions: dose 0.625-2.5 µM, DDE = dose-dependent effect
HCT-116 [10] = test: Antitumor activity against human HCT-116 cells xenografted in ip dosed BALB/c nude mouse assessed as tumor growth inhibition; assay type: functional, organism-based; conditions: dose 5.0 mg/kg, DDE = dose-dependent effect
HCT-116 [11] = test: Induction of cell cycle arrest in human HCT-116 cells assessed as accumulation at G0/G1 phase at 5 uM after 24 hrs by propidium iodide-staining based flow cytometry (reference value: 58.01 +/- 1.77%); assay type: functional
[12] = Toxicity in BALB/c mouse assessed as diarrhea at 100 mg/kg, ip after 7 days; assay type: organism-based; conditions: in vivo, 168 h, time 7 day
[13] = target: T2, Androgen receptor (Homo sapiens) (UniProt P10275); test: Inhibition of AR (unknown origin) at 10 uM
T2 sequence (whole entry): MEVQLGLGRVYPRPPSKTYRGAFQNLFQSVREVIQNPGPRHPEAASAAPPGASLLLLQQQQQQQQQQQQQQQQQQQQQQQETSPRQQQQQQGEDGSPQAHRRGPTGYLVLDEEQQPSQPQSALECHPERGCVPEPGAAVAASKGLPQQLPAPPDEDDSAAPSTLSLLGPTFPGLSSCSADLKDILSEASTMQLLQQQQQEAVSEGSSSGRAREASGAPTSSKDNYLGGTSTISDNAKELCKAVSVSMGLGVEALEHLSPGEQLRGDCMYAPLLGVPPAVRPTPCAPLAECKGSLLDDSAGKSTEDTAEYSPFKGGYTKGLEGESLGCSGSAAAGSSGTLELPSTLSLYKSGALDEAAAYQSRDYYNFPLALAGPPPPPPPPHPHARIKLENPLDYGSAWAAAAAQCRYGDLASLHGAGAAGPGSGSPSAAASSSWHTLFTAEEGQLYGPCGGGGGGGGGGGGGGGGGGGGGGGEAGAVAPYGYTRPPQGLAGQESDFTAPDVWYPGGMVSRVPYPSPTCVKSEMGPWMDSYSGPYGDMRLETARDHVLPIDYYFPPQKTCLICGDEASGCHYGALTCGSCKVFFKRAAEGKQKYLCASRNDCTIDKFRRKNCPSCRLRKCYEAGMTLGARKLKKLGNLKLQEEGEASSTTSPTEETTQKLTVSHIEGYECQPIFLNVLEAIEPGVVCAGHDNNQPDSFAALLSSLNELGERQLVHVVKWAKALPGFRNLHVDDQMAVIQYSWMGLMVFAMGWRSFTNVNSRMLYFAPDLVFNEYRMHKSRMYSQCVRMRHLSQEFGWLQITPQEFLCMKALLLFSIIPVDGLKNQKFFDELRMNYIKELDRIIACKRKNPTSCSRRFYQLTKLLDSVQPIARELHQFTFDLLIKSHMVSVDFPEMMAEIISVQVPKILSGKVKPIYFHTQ

[14] = target: T3, Glucocorticoid receptor (Homo sapiens) (UniProt P04150); test: Inhibition of GR (unknown origin) at 10 uM
T3 sequence (whole entry): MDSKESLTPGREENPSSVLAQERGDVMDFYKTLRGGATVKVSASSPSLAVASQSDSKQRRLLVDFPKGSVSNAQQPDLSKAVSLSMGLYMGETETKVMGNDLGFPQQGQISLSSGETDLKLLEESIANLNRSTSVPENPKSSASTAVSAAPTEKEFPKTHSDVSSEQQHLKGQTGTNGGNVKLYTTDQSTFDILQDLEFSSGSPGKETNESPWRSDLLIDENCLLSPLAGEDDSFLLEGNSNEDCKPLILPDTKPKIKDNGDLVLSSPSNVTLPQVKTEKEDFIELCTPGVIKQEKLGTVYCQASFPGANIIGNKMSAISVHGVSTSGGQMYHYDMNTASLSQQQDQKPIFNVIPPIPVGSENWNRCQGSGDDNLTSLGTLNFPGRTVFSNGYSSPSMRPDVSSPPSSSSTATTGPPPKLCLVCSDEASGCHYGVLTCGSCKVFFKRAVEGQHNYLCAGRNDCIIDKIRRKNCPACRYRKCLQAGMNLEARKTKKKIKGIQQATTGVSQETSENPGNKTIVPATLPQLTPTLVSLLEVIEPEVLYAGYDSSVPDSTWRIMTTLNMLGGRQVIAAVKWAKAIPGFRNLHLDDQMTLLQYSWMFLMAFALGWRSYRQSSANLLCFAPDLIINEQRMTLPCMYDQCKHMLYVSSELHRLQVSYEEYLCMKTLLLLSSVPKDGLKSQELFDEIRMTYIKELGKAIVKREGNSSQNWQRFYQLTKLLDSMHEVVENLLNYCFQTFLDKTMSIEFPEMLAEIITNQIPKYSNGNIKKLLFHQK

[15] = Toxicity in BALB/c nude mouse assessed as maximum tolerable dose; conditions: in vivo
HepG2 = test: Cytotoxicity against human HepG2 cells assessed as reduction in cell viability incubated for 72 hrs by MTS assay; assay type: functional, cell-based; conditions: HepG2, 72 h
[16] = AUCt in BALB/c mouse at 10 mg/kg; assay type: ADME, organism-based; set-up: dose 10 mg/kg; conditions: in vivo
[17] = AUCt in BALB/c mouse at 5 mg/kg; assay type: ADME, organism-based; set-up: dose 5 mg/kg; conditions: in vivo
Sequestosome-1 [18] = target: T1, Sequestosome-1; test: Binding affinity to N-terminal P62 LB domain (unknown origin) expressed in HEK293T cells; assay type: cell-based; conditions: filed as activator

T1 sequence (Q13501 whole entry, the tested form may be a part): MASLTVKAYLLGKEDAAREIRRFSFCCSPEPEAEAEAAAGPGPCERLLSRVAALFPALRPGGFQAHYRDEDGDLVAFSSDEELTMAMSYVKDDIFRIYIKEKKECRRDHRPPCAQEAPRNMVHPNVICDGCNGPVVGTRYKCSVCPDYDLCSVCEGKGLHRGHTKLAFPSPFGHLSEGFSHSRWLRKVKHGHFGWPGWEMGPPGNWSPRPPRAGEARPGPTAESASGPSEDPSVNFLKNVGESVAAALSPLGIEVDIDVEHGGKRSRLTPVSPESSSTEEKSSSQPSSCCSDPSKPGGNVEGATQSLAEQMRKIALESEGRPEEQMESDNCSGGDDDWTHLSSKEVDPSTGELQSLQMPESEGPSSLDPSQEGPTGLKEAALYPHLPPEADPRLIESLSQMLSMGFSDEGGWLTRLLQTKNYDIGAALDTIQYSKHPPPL

SMILES: COc1cc(-n2cc(-c3ccc4nc(N)nc(N)c4c3)nn2)cc(OC)c1OC
- half-life [1]: 16.2 h
- Activity [2]: Toxic
- half-life at 0.5 µM [3]: 7.17 h
- Activity (HCT-116 [4]): Active
- Activity (HCT-116 [5]): 24.42%
- Activity [6]: Non-Toxic
- pIC50 (U2OS [7]): 5.44
- Activity (Sequestosome-1 [8]): Active
- inhibition (U2OS [9]): Dde
- Activity (HCT-116 [10]): Dde
- Activity (HCT-116 [11]): 50.82%
- Activity [12]: Toxic
- inhibition [13]: Active
- inhibition [14]: Active
- MTD [15]: 12.5 mg/kg
- pIC50 (HepG2): 4.71
- AUC(0-t) [16]: 408 ng·h/mL
- AUC(0-t) [17]: 215 ng·h/mL
- Activity (Sequestosome-1 [18]): Active
